Series [1] relates to hepatocellular carcinoma SMMC-7721 cells. Format: cell-based, human. Particulars: 48 h. As for the experimental part: (§1) Lung cancer A549, drug-resistant lung cancer A549-DPP, human hepatocellular carcinoma HepG2 and hepatocellular carcinoma SMMC-7721 cells obtained from the China cell bank of the Institute of Biochemistry and were cultured in DMEM culture medium (DMEM, Corning, NY, USA) containing 10% fetal bovine serum (FBS, Hyclone, Logan, UT, USA), 1% penicillin-streptomycin and an antifungal agent in a 5% CO2 humidified atmosphere at 37 °C. The culture medium was replaced once in a day. Trypsin digestion method was adopted for cell propagation. Upon reaching 80%–90% confluence, the cells were rinsed twice with PBS. A certain amount of 0.25% trypsin digestion solution was then added and maintained for 3–5 min at 37 °C. Afterward, DMEM culture medium containing 10% fetal bovine serum was added to terminate the digestion. The cells were then blown well to form single cell suspensions.
(§2) The cell viability was determined by measuring the ability of cells to transform MTT (Genview, Houston, TX, USA) to a purple formazan dye. The cells were seeded in 96-well tissue culture plates at 2.5 × 10^3 cells/well for 24 h. The cells were then incubated with galaxamide and its analogues for 48 h. After incubation, 20 μL/well of MTT solution (5 mg/mL phosphate buffered saline) were added and incubated for 5 h. The medium was aspirated and replaced with 100 μL/well of DMSO to dissolve the formazan salt. The color intensity of the formazan solution, which reflects the cell growth condition, was measured at 570 nm using a microplate spectrophotometer (SpectroAma™ 250, Winooski, VT, USA).

The subject of series [2] is drug-resistant lung cancer cell line A549/DPP. The class given is cell-based, human. Conditions: 48 h. The method, then: as §1, §2
The subject of series [3] is Lung cancer cell line A549. The class given is cell-based, human. Conditions: 48 h. As for the experimental part:
as §1, §2

For series [4], the system named is human hepatocellular carcinoma HepG2. Format: cell-based. Conditions: 48 h. The method, then: as §1, §2
The conditions of series [5]: amide bond, 15-membered ring, PyBOP/DIEA, DCM, 0.7 mM, 25.0 °C.

22 compounds from PMC5039532, “Design and Synthesis of Analogues of Marine Natural Product Galaxamide, an N-methylated Cyclic Pentapeptide, as Potential Anti-Tumor Agent in Vitro” (Marine Drugs, 2016) can be followed below.

Values after ≈ are worked out from the molar mass of the structure shown. Like-named read-outs stand apart in the source and are kept apart here.

Turning to `CC(C)C[C@@H]1NC(=O)[C@@H](Cc2ccccc2)NC(=O)[C@@H](CC(C)C)N(C)C(=O)[C@@H](CC(C)C)NC(=O)[C@@H](CC(C)C)NC1=O` [Compound 25, cyclo(D-Phe-Leu-D-Leu-D-Leu-D-N-Me-Leu)], in series [1], the “IC50 Value SMMC-7721” value worked out at 6.85 µg/mL (≈ 11.2 µM). In addition, the “IC50 Value A549-DPP” value in series [2] was determined as 20.43 µg/mL (≈ 33.3 µM). The “IC50 Value A549” value in series [3] stood at 5.18 µg/mL (≈ 8.44 µM). Besides, the “IC50 Value HepG2” value in series [4] was determined as 22.88 µg/mL (≈ 37.3 µM).

The compound `CC(C)C[C@H]1NC(=O)[C@@H](Cc2ccccc2)NC(=O)[C@H](CC(C)C)N(C)C(=O)[C@@H](CC(C)C)NC(=O)[C@H](CC(C)C)N(C)C1=O` [cyclo(D-Phe-D-Leu-N-Me-Leu-D-Leu-N-Me-Leu)] gave a ring closure, yield after HPLC in series [5] (from H-dPhe-dLeu-MeLeu-dLeu-MeLeu-OH?) of 53.9%.

In series [5] (from H-dPhe-MeLeu-Leu-Leu-dMeLeu-OH?), `CC(C)C[C@@H]1NC(=O)[C@H](CC(C)C)N(C)C(=O)[C@@H](Cc2ccccc2)NC(=O)[C@@H](CC(C)C)N(C)C(=O)[C@H](CC(C)C)NC1=O` [cyclo(D-Phe-N-Me-Leu-Leu-Leu-D-N-Me-Leu)] showed a ring closure, yield after HPLC of 45.1%.

With `CC(C)C[C@@H]1NC(=O)[C@@H](Cc2ccccc2)NC(=O)[C@H](CC(C)C)N(C)C(=O)[C@H](CC(C)C)NC(=O)[C@@H](CC(C)C)NC1=O` [Compound 23, cyclo(D-Phe-Leu-D-Leu-Leu-N-Me-Leu)], the “IC50 Value SMMC-7721” value in series [1] turned out to be 4.32 µg/mL (≈ 7.04 µM). In addition, the “IC50 Value A549-DPP” value in series [2] was 9.13 µg/mL (≈ 14.9 µM). Moreover, in series [3], the “IC50 Value A549” value amounted to 5.85 µg/mL (≈ 9.53 µM). The “IC50 Value HepG2” value in series [4] came out at 26.62 µg/mL (≈ 43.4 µM).

In the case of `CC(C)C[C@@H]1NC(=O)[C@H](CC(C)C)N(C)C(=O)[C@@H](Cc2ccccc2)NC(=O)[C@@H](CC(C)C)N(C)C(=O)[C@H](CC(C)C)NC1=O` [Compound 26, cyclo(D-Phe-N-Me-Leu-Leu-Leu-D-N-Me-Leu)], in series [1], the “IC50 Value SMMC-7721” value was 6.65 µg/mL (≈ 10.6 µM). For the same compound, in series [2], the “IC50 Value A549-DPP” value came to 11.33 µg/mL (≈ 18 µM). For the same compound, the “IC50 Value A549” value in series [3] was determined as 4.27 µg/mL (≈ 6.8 µM). For the same compound, in series [4], the “IC50 Value HepG2” value stood at 7.12 µg/mL (≈ 11.3 µM).

`CC(C)C[C@@H]1NC(=O)[C@H](Cc2ccccc2)NC(=O)[C@@H](CC(C)C)N(C)C(=O)[C@H](CC(C)C)NC(=O)[C@H](CC(C)C)NC1=O` [cyclo(Phe-Leu-Leu-Leu-D-N-Me-Leu)] gave a ring closure, yield after HPLC in series [5] (from H-Phe-Leu-Leu-Leu-dMeLeu-OH?) of 66.4%.

In series [5] (from H-dPhe-Leu-Leu-dLeu-MeLeu-OH?), `CC(C)C[C@@H]1NC(=O)[C@H](CC(C)C)NC(=O)[C@@H](Cc2ccccc2)NC(=O)[C@H](CC(C)C)N(C)C(=O)[C@@H](CC(C)C)NC1=O` [cyclo(D-Phe-Leu-Leu-D-Leu-N-Me-Leu)] returned a ring closure, yield after HPLC of 65.4%.

Take `CC(C)C[C@H]1NC(=O)[C@H](Cc2ccccc2)NC(=O)[C@H](CC(C)C)N(C)C(=O)[C@@H](CC(C)C)NC(=O)[C@@H](CC(C)C)NC1=O` [Compound 21, cyclo(Phe-D-Leu-D-Leu-D-Leu-N-Me-Leu)]: the “IC50 Value SMMC-7721” value in series [1] was 8.21 µg/mL (≈ 13.4 µM). Moreover, in series [2], the “IC50 Value A549-DPP” value came out at 18.6 µg/mL (≈ 30.3 µM). In series [3], the “IC50 Value A549” value was 6.47 µg/mL (≈ 10.5 µM). Besides, the “IC50 Value HepG2” value in series [4] stood at 15.3 µg/mL (≈ 24.9 µM).

For the compound `CC(C)C[C@@H]1NC(=O)[C@H](CC(C)C)N(C)C(=O)[C@H](CC(C)C)NC(=O)[C@@H](CC(C)C)N(C)C(=O)[C@@H](Cc2ccccc2)NC1=O` [cyclo(D-Phe-D-N-Me-Leu-Leu-N-Me-Leu-Leu)], the ring closure, yield after HPLC in series [5] (from H-dPhe-dMeLeu-Leu-MeLeu-Leu-OH?) turned out to be 45.5%.

On to `CC(C)C[C@@H]1NC(=O)[C@@H](CC(C)C)N(C)C(=O)[C@H](CC(C)C)NC(=O)[C@@H](Cc2ccccc2)NC(=O)[C@@H](CC(C)C)NC1=O` [Compound 4, cyclo(D-Phe-Leu-D-N-Me-Leu-Leu-D-Leu)], for which, in series [1], the “IC50 Value SMMC-7721” value was 1.53 µg/mL (≈ 2.49 µM). Besides, in series [2], the “IC50 Value A549-DPP” value amounted to 19.71 µg/mL (≈ 32.1 µM). Besides, in series [3], the “IC50 Value A549” value was 8.89 µg/mL (≈ 14.5 µM). Moreover, the “IC50 Value HepG2” value in series [4] is 16.58 µg/mL (≈ 27 µM).

As for `CC(C)C[C@H]1NC(=O)[C@@H](Cc2ccccc2)NC(=O)[C@H](CC(C)C)N(C)C(=O)[C@@H](CC(C)C)NC(=O)[C@H](CC(C)C)N(C)C1=O` [Compound 5, cyclo(D-Phe-D-Leu-N-Me-Leu-D-Leu-N-Me-Leu)], the “IC50 Value SMMC-7721” value in series [1] was found to be 2.74 µg/mL (≈ 4.36 µM). The “IC50 Value A549-DPP” value in series [2] stood at 23.61 µg/mL (≈ 37.6 µM). For the same compound, in series [3], the “IC50 Value A549” value came out at 6.89 µg/mL (≈ 11 µM). The “IC50 Value HepG2” value in series [4] was 5.23 µg/mL (≈ 8.33 µM).

Consider `CC(C)C[C@@H]1NC(=O)[C@H](Cc2ccccc2)NC(=O)[C@H](CC(C)C)N(C)C(=O)[C@@H](CC(C)C)NC(=O)[C@H](CC(C)C)NC1=O` [Compound 20, cyclo(Phe-Leu-Leu-D-Leu-N-Me-Leu)], for which the “IC50 Value SMMC-7721” value in series [1] is 3.35 µg/mL (≈ 5.46 µM). Also, in series [2], the “IC50 Value A549-DPP” value is 16.15 µg/mL (≈ 26.3 µM). The “IC50 Value A549” value in series [3] was 7.41 µg/mL (≈ 12.1 µM). Also, the “IC50 Value HepG2” value in series [4] stood at 9.68 µg/mL (≈ 15.8 µM).

For `CC(C)C[C@H]1NC(=O)[C@H](Cc2ccccc2)NC(=O)[C@H](CC(C)C)N(C)C(=O)[C@@H](CC(C)C)NC(=O)[C@@H](CC(C)C)NC1=O` [cyclo(Phe-D-Leu-D-Leu-D-Leu-N-Me-Leu)], the ring closure, yield after HPLC in series [5] (from H-Phe-dLeu-dLeu-dLeu-MeLeu-OH?) came out at 55.1%.

Take `CC(C)C[C@@H]1NC(=O)[C@H](Cc2ccccc2)NC(=O)[C@H](CC(C)C)N(C)C(=O)[C@@H](CC(C)C)NC(=O)[C@H](CC(C)C)NC1=O` [cyclo(Phe-Leu-Leu-D-Leu-N-Me-Leu)]: the ring closure, yield after HPLC in series [5] (from H-Phe-Leu-Leu-dLeu-MeLeu-OH?) came out at 46.1%.

`CC(C)C[C@@H]1NC(=O)[C@@H](Cc2ccccc2)NC(=O)[C@H](CC(C)C)N(C)C(=O)[C@H](CC(C)C)NC(=O)[C@@H](CC(C)C)NC1=O` [cyclo(D-Phe-Leu-D-Leu-Leu-N-Me-Leu)] came in with a ring closure, yield after HPLC in series [5] (from H-dPhe-Leu-dLeu-Leu-MeLeu-OH?) of 48.5%.

Turning to `CC(C)C[C@@H]1NC(=O)[C@H](Cc2ccccc2)NC(=O)[C@@H](CC(C)C)N(C)C(=O)[C@H](CC(C)C)NC(=O)[C@H](CC(C)C)NC1=O` [Compound 24, cyclo(Phe-Leu-Leu-Leu-D-N-Me-Leu)], the “IC50 Value SMMC-7721” value in series [1] worked out at 7.04 µg/mL (≈ 11.5 µM). Also, the “IC50 Value A549-DPP” value in series [2] was 9.26 µg/mL (≈ 15.1 µM). In addition, in series [3], the “IC50 Value A549” value came to 3.45 µg/mL (≈ 5.62 µM). Further, the “IC50 Value HepG2” value in series [4] worked out at 7.92 µg/mL (≈ 12.9 µM).

As to `CC(C)C[C@@H]1NC(=O)[C@@H](Cc2ccccc2)NC(=O)[C@@H](CC(C)C)NC(=O)[C@@H](CC(C)C)NC(=O)[C@H](CC(C)C)N(C)C1=O` [cyclo(D-Phe-Leu-N-Me-Leu-D-Leu-D-Leu)], in series [5] (from H-dPhe-Leu-MeLeu-dLeu-dLeu-OH?), the ring closure, yield after HPLC is 61.5%.

As to `CC(C)C[C@@H]1NC(=O)[C@@H](Cc2ccccc2)NC(=O)[C@@H](CC(C)C)N(C)C(=O)[C@@H](CC(C)C)NC(=O)[C@@H](CC(C)C)NC1=O` [cyclo(D-Phe-Leu-D-Leu-D-Leu-D-N-Me-Leu)], the ring closure, yield after HPLC in series [5] (from H-dPhe-Leu-dLeu-dLeu-dMeLeu-OH?) was determined as 50%.

In turn, `CC(C)C[C@@H]1NC(=O)[C@@H](CC(C)C)N(C)C(=O)[C@H](CC(C)C)NC(=O)[C@@H](Cc2ccccc2)NC(=O)[C@@H](CC(C)C)NC1=O` [cyclo(D-Phe-Leu-D-N-Me-Leu-Leu-D-Leu)] registered a ring closure, yield after HPLC in series [5] (from H-dPhe-Leu-dMeLeu-Leu-dLeu-OH?) of 53.8%.

As to `CC(C)C[C@@H]1NC(=O)[C@@H](Cc2ccccc2)NC(=O)[C@@H](CC(C)C)NC(=O)[C@@H](CC(C)C)NC(=O)[C@H](CC(C)C)N(C)C1=O` [Compound 2, cyclo(D-Phe-Leu-N-Me-Leu-D-Leu-D-Leu)], in series [1], the “IC50 Value SMMC-7721” value was 5.48 µg/mL (≈ 8.93 µM). Also, the “IC50 Value A549-DPP” value in series [2] was found to be 15.01 µg/mL (≈ 24.5 µM). For the same compound, the “IC50 Value A549” value in series [3] is 5.27 µg/mL (≈ 8.59 µM). In series [4], the “IC50 Value HepG2” value is 7.76 µg/mL (≈ 12.6 µM).

Regarding `CC(C)C[C@@H]1NC(=O)[C@H](Cc2ccccc2)NC(=O)[C@@H](CC(C)C)NC(=O)[C@@H](CC(C)C)NC(=O)[C@@H](CC(C)C)N(C)C1=O` [cyclo(Phe-Leu-D-N-Me-Leu-D-Leu-D-Leu)], the ring closure, yield after HPLC in series [5] (from H-Phe-Leu-dMeLeu-dLeu-dLeu-OH?) turned out to be 51.7%.

For `CC(C)C[C@H]1NC(=O)[C@@H](CC(C)C)NC(=O)[C@H](CC(C)C)N(C)C(=O)[C@@H](CC(C)C)NC(=O)[C@H](Cc2ccccc2)NC1=O` [cyclo(Phe-D-Leu-N-Me-Leu-D-Leu-D-Leu)], the ring closure, yield after HPLC in series [5] (from H-Phe-dLeu-MeLeu-dLeu-dLeu-OH?) was determined as 57.3%.
